Calls of active or inactive are those of the source. No cut-off for these calls is given here.
Columns and labels:
[1] = In vivo inhibition of NEH3 in Sprague-Dawley rat assessed as fecal form score at 3 mg/kg, po administered via gavage measured after 6 hrs; format: functional
[2] = AUC in Sprague-Dawley rat at 23 mg/kg, po administered via gavage by LC-MS/MS analysis; conditions: in vivo
[3] = Cmax in Sprague-Dawley rat at 23 mg/kg, po administered via gavage by LC-MS/MS analysis; format: ADME, organism-based; parameters: dose 23 mg/kg, route po; conditions: in vivo
[4] = In vivo inhibition of NEH3 in Sprague-Dawley rat assessed as sodium excretion in urine at 3 mg/kg, po administered via gavage measured after 16 hrs by ion chromatography relative to control; parameters: scale not given: the % may be the effect or the level left
[5] = target: Sodium/hydrogen exchanger 3 (Rattus norvegicus, UniProt P26433); experiment: Inhibition of rat NHE3 expressed in opossum kidney cells assessed as reduction in Na-HEPES buffer-mediated pH recovery in presence of NEH1 inhibitor ethyl isopropyl amiloride by BCECF-AM dye based fluorescence assay; format: cell-based, Kidney epithelial cell
[6] = In vivo inhibition of NEH3 in Sprague-Dawley rat assessed as fecal water content at 3 mg/kg, po administered via gavage measured after 6 hrs; format: functional; parameters: scale not given: the % may be the effect or the level left
[7] = target: T1, Sodium/hydrogen exchanger 3 (Homo sapiens, UniProt P48764); experiment: Inhibition of human NHE3 expressed in opossum kidney cells assessed as reduction in Na-HEPES buffer-mediated pH recovery in presence of NEH1 inhibitor ethyl isopropyl amiloride by BCECF-AM dye based fluorescence assay; format: cell-based, Kidney epithelial cell
T1 sequence (P48764 whole entry): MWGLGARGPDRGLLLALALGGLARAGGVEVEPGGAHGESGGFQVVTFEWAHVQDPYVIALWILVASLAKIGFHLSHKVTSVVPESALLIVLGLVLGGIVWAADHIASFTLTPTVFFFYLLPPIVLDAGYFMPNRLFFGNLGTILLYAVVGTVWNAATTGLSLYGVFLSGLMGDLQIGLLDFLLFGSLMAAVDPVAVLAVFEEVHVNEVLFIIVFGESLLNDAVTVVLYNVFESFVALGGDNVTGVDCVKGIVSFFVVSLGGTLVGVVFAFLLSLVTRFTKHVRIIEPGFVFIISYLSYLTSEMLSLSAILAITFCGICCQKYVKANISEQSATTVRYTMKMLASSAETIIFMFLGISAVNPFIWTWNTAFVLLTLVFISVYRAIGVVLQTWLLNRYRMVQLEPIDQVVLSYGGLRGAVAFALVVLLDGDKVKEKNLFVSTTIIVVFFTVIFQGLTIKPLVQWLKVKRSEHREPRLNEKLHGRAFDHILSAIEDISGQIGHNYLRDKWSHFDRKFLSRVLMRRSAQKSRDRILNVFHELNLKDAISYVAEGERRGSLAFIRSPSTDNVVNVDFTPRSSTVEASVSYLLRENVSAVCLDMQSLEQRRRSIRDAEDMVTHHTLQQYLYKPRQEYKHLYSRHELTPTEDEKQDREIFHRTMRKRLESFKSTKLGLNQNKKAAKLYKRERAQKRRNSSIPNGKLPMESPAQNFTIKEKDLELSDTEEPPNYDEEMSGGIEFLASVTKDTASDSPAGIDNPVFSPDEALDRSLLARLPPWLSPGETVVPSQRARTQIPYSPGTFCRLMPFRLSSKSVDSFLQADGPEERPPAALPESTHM

[8] = Cmax in Sprague-Dawley rat at […], po administered via gavage by LC-MS/MS analysis; format: ADME, organism-based; parameters: dose 7.2 mg/kg, route po; conditions: in vivo
[9] = Dose normalized AUC in Sprague-Dawley rat at […], po administered via gavage by LC-MS/MS analysis; format: ADME, organism-based; conditions: in vivo, dose 7.2 mg/kg
[10] = Toxicity in Sprague-Dawley rat assessed as change in alanine aminotransferase level at 30 mg/kg, po administered for 7 days measured on day 8; format: organism-based; conditions: in vivo, 192 h, time 8 day
[11] = Toxicity in Sprague-Dawley rat assessed as change in aspartate aminotransferase level at 30 mg/kg, po administered for 7 days measured on day 8; format: organism-based; conditions: in vivo, 192 h, time 8 day
hERG (KCNH2) = hERG (KCNH2) (Homo sapiens, UniProt Q12809); experiment: Inhibition of human ERG at 10 uM relative to control; format: toxicity
[12] = Toxicity in Sprague-Dawley rat assessed as pathological changes at 30 mg/kg, po administered for 7 days measured on day 8 by microscopy; format: organism-based; conditions: in vivo, 192 h, time 8 day
[13] = Cmax in Sprague-Dawley rat at 30 mg/kg, po administered via gavage by LC-MS/MS analysis; format: ADME, organism-based; parameters: dose 30 mg/kg, route po; conditions: in vivo
[14] = Drug recovery in Sprague-Dawley rat feces at 0.1 mg/kg, po administered via gavage measured after 72 hrs by LC-MS/MS analysis; format: ADME, organism-based; conditions: faeces, read-out: Drug recovery
[15] = Drug metabolism in Sprague-Dawley rat at 30 mg/kg, po administered via gavage by LC-MS/MS analysis; format: ADME, organism-based; conditions: in vivo
[16] = Drug metabolism in Sprague-Dawley rat feces at 0.1 mg/kg, po administered via gavage measured after 72 hrs by LC-MS/MS analysis; format: ADME, organism-based; conditions: in vivo
[17] = Toxicity in Sprague-Dawley rat assessed as gross pathological changes at 30 mg/kg, po administered for 7 days measured on day 8 by necropsy; format: organism-based; conditions: in vivo, 192 h, time 8 day
[18] = Toxicity in Sprague-Dawley rat assessed as diarrhea at 30 mg/kg, po administered for 7 days; format: organism-based; conditions: in vivo, 168 h, time 7 day
[19] = In vivo inhibition of NEH3 in Sprague-Dawley rat assessed as increase in fecal water content at 0.1 to 3 mg/kg, po administered via gavage measured after 6 hrs; format: functional; parameters: scale not given: the % may be the effect or the level left; conditions: dose 0.1-3 mg/kg
Rattus norvegicus = experiment: In vivo inhibition of NEH3 in Sprague-Dawley rat assessed as reduction in sodium excretion in urine at 0.1 to 3 mg/kg, po administered via gavage measured after 16 hrs by ion chromatography; format: functional, organism-based; conditions: dose 0.1-3 mg/kg
[20] = Cmax in Sprague-Dawley rat at 22 mg/kg, po administered via gavage by LC-MS/MS analysis; format: ADME, organism-based; parameters: dose 22 mg/kg, route po; conditions: in vivo
[21] = AUC in Sprague-Dawley rat at 22 mg/kg, po administered via gavage by LC-MS/MS analysis; conditions: in vivo
[22] = Cmax in Sprague-Dawley rat at 28 mg/kg, po administered via gavage by LC-MS/MS analysis; format: ADME, organism-based; parameters: dose 28 mg/kg, route po; conditions: in vivo
[23] = AUC in Sprague-Dawley rat at 28 mg/kg, po administered via gavage by LC-MS/MS analysis; conditions: in vivo

Sequence of Sodium/hydrogen exchanger 3 (Rattus norvegicus, UniProt P26433) (P26433 whole entry): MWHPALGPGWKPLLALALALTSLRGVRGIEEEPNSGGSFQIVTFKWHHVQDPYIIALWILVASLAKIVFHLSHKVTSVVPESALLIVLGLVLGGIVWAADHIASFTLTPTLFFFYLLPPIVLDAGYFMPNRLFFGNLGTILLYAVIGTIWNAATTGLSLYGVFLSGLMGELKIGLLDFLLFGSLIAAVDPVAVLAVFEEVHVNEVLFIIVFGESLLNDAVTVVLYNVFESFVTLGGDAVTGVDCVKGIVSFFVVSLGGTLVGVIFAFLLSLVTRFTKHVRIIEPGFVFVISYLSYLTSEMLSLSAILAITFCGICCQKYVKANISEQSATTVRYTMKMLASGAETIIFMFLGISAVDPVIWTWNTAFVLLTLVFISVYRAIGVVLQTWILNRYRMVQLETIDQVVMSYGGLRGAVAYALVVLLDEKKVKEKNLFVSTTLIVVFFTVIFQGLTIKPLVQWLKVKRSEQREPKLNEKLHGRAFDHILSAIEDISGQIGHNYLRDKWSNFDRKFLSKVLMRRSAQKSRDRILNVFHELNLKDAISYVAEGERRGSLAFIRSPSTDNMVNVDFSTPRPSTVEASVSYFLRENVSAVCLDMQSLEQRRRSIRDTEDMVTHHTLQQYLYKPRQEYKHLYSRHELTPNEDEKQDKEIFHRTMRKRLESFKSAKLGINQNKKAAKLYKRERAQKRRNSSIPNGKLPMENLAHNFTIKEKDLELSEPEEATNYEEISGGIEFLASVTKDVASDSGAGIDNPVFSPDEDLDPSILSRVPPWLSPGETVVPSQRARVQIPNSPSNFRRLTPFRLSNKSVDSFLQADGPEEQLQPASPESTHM
Sequence of hERG (KCNH2) (Q12809 whole entry): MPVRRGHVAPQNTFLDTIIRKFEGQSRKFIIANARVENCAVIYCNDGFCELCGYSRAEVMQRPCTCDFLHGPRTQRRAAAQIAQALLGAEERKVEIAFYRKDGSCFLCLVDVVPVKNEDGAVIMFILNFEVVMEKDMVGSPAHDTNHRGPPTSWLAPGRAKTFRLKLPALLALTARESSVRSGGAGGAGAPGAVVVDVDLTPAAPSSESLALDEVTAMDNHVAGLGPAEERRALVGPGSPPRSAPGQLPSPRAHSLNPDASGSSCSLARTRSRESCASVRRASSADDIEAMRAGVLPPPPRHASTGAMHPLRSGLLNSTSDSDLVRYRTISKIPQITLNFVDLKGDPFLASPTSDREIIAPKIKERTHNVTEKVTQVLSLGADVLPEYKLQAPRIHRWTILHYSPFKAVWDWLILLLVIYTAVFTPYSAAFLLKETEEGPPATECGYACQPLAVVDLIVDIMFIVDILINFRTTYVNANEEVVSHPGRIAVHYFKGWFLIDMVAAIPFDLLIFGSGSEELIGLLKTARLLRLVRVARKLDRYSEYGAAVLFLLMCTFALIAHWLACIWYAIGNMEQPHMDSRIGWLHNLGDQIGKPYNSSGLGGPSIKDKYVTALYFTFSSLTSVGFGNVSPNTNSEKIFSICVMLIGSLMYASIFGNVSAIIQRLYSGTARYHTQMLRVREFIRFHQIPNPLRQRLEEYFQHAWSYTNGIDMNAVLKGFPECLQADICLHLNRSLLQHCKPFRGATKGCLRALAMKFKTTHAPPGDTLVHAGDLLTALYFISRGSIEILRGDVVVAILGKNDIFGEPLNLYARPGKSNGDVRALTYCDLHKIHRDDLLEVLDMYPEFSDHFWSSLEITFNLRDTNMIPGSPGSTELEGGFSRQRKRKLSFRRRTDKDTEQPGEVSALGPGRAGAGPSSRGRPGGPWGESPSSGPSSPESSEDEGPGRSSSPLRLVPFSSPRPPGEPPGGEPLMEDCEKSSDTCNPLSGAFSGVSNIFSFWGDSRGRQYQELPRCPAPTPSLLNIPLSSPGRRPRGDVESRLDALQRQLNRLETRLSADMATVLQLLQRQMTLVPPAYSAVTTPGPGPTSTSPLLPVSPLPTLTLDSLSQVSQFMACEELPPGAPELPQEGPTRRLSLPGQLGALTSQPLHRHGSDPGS

Compound: CN1Cc2c(Cl)cc(Cl)cc2C(c2ccc(S(=O)(=O)NCCOCCOCCNC(=O)c3ccc(C(=O)NCCOCCOCCNS(=O)(=O)c4ccc(C5CN(C)Cc6c(Cl)cc(Cl)cc65)cc4)cc3)cc2)C1 (racemic)
- Activity [1]: 2
- AUC [2]: < 8 ng·h/mL
- Cmax [3]: < 3 ng/mL
- Activity [4]: 45%
- IC50 [5]: 0.398 µM
- Activity [6]: 56%

Compound: CN1Cc2c(Cl)cc(Cl)cc2C(c2cccc(S(=O)(=O)NCCOCCOCCOCCNC(=O)c3ccc(C(=O)NCCOCCOCCOCCNS(=O)(=O)c4cccc(C5CN(C)Cc6c(Cl)cc(Cl)cc65)c4)cc3)c2)C1 (racemic)
- Activity [1]: 1
- Activity [4]: 87%
- IC50 [7]: 0.0501 µM
- IC50 [5]: 0.0251 µM
- Cmax [8]: < 4 ng/mL
- AUC [9]: < 12 ng·h/mL
- Activity [6]: 53%

Compound: CN1Cc2c(Cl)cc(Cl)cc2[C@H](c2cccc(S(=O)(=O)NCCOCCOCCNC(=O)NCCCCNC(=O)NCCOCCOCCNS(=O)(=O)c3cccc([C@@H]4CN(C)Cc5c(Cl)cc(Cl)cc54)c3)c2)C1 [TENAPANOR]
- Activity [10]: Non-Toxic
- Activity [11]: Non-Toxic
- inhibition at 10 µM (hERG (KCNH2)): < 50%
- Activity [12]: Non-Toxic
- Cmax [13]: < 3 ng/mL
- dose excreted at 72 h [14]: 92%
- IC50 [7]: 0.000501 µM
- Drug metabolism [15]: Metabolite_Notdetected
- IC50 [5]: 0.0158 µM
- Drug metabolism [16]: Metabolite_Detected
- Activity [17]: Non-Toxic
- Activity [18]: Toxic
- Activity [19]: 10%
- inhibition (Rattus norvegicus): Active

Compound: CN1Cc2c(Cl)cc(Cl)cc2C(c2cccc(S(=O)(=O)NCCOCCOCCNC(=O)c3ccc(C(=O)NCCOCCOCCNS(=O)(=O)c4cccc(C5CN(C)Cc6c(Cl)cc(Cl)cc65)c4)cc3)c2)C1 (racemic)
- Activity [1]: 2
- Cmax [20]: < 2 ng/mL
- AUC [21]: < 8 ng·h/mL
- Activity [4]: 24%
- IC50 [5]: 6.31 µM
- Activity [6]: 58%

Compound: CN1Cc2c(Cl)cc(Cl)cc2C(c2cccc(S(=O)(=O)NCCOCCOCCOCCNC(=O)CCC(=O)NCCOCCOCCOCCNS(=O)(=O)c3cccc(C4CN(C)Cc5c(Cl)cc(Cl)cc54)c3)c2)C1 (racemic)
- Activity [1]: 1.5
- Activity [4]: 56%
- Cmax [22]: < 2 ng/mL
- AUC [23]: < 8 ng·h/mL
- Activity [6]: 54%

Reference: ChEMBL document CHEMBL5143744, “Discovery of Tenapanor: A First-in-Class Minimally Systemic Inhibitor of Intestinal Na+/H+ Exchanger Isoform 3” (ACS Med Chem Lett, 2022)
